Key:
[1] = system: rat knee cartilage; assay: Protective effect on rat knee cartilage during liquid nitrogen freezing (HE stain of pathological sections); conditions: coated at articular cartilage; liquid nitrogen 20 minutes, warmed to room temperature 20 minutes
Method: The rat knee cartilage was taken out. The control group A was not treated, and the control group B was coated with a conventional commercially available anti-freezing agent (dimethyl sulfoxide) at the articular cartilage. The experimental groups were coated with the anti-freezing agent of the present invention at the articular cartilage, separately placed in liquid nitrogen for 20 minutes, slowly warmed to room temperature for 20 minutes, fixed with 4% paraformaldehyde, pathologically sectioned, and then stained with hematoxylin-eosin (HE stain). The pathological sections of hematoxylin-eosin stained control group (A), control group (B), and experimental group (C). are shown in FIG. 2. After freezing, in the control group A the cartilage surface became brittle and uneven (as indicated by the arrow), and the control group B was also uneven (as indicated by the arrow).

[2] = system: human cartilage tissue; assay: Protection of human cartilage tissue during liquid nitrogen freezing (HE stain, separation of cartilage from hard bone); conditions: applied to articular cartilage, liquid nitrogen 20 minutes, warmed to room temperature 20 minutes
Text: Unneeded normal cartilage tissues (residual specimens) taken from the human body during surgery were divided into three groups and treated separately: control group A was not treated; for control group B, traditional commercially available anti-freezing agent was applied to articular cartilage; and for experimental group C, the anti-freezing agent of the present invention was applied to the articular cartilage. The control and experimental groups were separately placed in liquid nitrogen to freeze for 20 minutes, slowly warmed to room temperature for 20 minutes, fixed with 4% paraformaldehyde, pathologically sectioned, and then stained by hematoxylin-eosin. […] The size of separation was 2.16 mm in the control group A, 1.2 mm in the control group B, and 0.45 mm in the experimental group. It was shown that the anti-freezing agent of the present invention can protect cartilage tissue and reduce the separation of cartilage and hard bone caused by freezing.

[3] = system: human cartilage tissue; assay: Change of cartilage color index (luminance level of cartilage surface) after freezing; conditions: applied to articular cartilage; liquid nitrogen 20 minutes, warmed to room temperature 20 minutes
Text: Unneeded normal cartilage tissues (residual specimens) taken from the human body during surgery were divided into three groups and treated separately: control group A was not treated; for control group B, traditional commercially available anti-freezing agent was applied to articular cartilage; and for experimental group C, the anti-freezing agent of the present invention was applied to the articular cartilage. The control and experimental groups were separately placed in liquid nitrogen to freeze for 20 minutes, and then slowly warmed to room temperature for 20 minutes. The color index change of the cartilage surface was observed by analyzing the decrease of luminance level of the cartilage surface.

C[S+](C)[O-] [dimethyl sulfoxide]
cartilage surface after freezing (hematoxylin-eosin stained section) [1]: uneven
separation at the intersection of the cartilage bottom and the hard bone after freezing ([2]; HE stain): separation (the stellate) also occurred
size of separation ([2]; untreated control 2.16 mm): 1.2 mm
decrease of luminance level of the cartilage surface after freezing [3]: significantly decreased

From patent US11596145B2, “Anti-freezing agent for protecting biological tissue during freezing treatment and preparation method therefor” (TAIPEI VETERANS GENERAL HOSPITAL, priority 2016, dated 2023)
